# Assay results published in PubChem BioAssay (NCI).
#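 Tested at 5 concentrations; 48 h exposure; 96-well plates; endpoints linearly interpolated, else capped at highest concentration. TGI marks complete inhibition of growth.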
# System: NCI-H23 lung
# Assay: growth of human tumour cells (NCI), 48 h
row,SMILES,TGI
1,c1nc(OCC2CCCCC2)c2[nH]cnc2n1,> 100 µM
2,Oc1cn(-c2ccc(Cl)cc2)nc1-c1nnc(-c2ccccc2)o1,1.01 µM
3,COc1ccc(N2C(=O)/C(=C(\C)c3cc4ccccc4oc3=O)N=C2c2cc([N+](=O)[O-])ccc2Cl)cc1,> 100 µM
4,O=C(O)CC(CC(=O)O)C(=O)O,> 100 µM
5,CC(=O)N(C)c1ccc(Nc2cc(C)[nH]c3ccc4ncnc4c23)cc1,28 µM
6,FC(F)(F)c1ccc(N=C/C=C(/Nc2ccc(C(F)(F)F)cc2)c2ccc(Cl)cc2)cc1,31.3 µM
7,CCCCN(CCCC)CC(O)c1cc(-c2ccc(C(F)(F)F)cc2)nc(-c2ccc(C(F)(F)F)cc2)c1 (stereo unspecified),> 100 µM
8,CC(C)(C)[Si](OC1CC(n2cnc3c(N)ncnc32)OC1CO)(c1ccccc1)c1ccccc1 (stereo unspecified),28 µM
9,NS(=O)(=O)c1ccc(N=Nc2nc3[nH]c(=O)[nH]c(=O)c3[nH]2)cc1,> 100 µM
10,CC1=CC(C)C/C=C/C2C3OC3(C)C(C)C3C(Cc4c[nH]c5ccccc45)NC(=O)C23C(=O)C=CC(=O)C1O (stereo unspecified),28.5 µM
11,O=C(O)c1ccc(Nc2c3ccccc3nc3ccccc23)cc1,> 100 µM
12,Cc1cc(C)n(C(=C(C(Cl)=C(Cl)Cl)[N+](=O)[O-])n2nc(C)cc2C)n1,12.8 µM
13,COc1ccc(C2COc3cc(OC(C)=O)c(OC(C)=O)cc3C2)cc1 (stereo unspecified),63.1 µM
14,CCOc1cc2c(OCc3ccccc3)cc3c4cc(OC)c(OC)cc4c[n+](C)c3c2cc1OC,9.1 µM
15,C/C(=N\NC(=S)N1CCCCC1)c1nc2ncccc2[nH]1,57.5 µM

# System: HOP-92 NSCLC
# Assay: growth of human tumour cells (NCI), 48 h
row,SMILES,TGI
1,c1nc(OCC2CCCCC2)c2[nH]cnc2n1,> 100 µM
2,Oc1cn(-c2ccc(Cl)cc2)nc1-c1nnc(-c2ccccc2)o1,80.6 µM
3,O=C(O)CC(CC(=O)O)C(=O)O,> 100 µM
4,CC(=O)N(C)c1ccc(Nc2cc(C)[nH]c3ccc4ncnc4c23)cc1,14.7 µM
5,FC(F)(F)c1ccc(N=C/C=C(/Nc2ccc(C(F)(F)F)cc2)c2ccc(Cl)cc2)cc1,51.4 µM
6,CCCCN(CCCC)CC(O)c1cc(-c2ccc(C(F)(F)F)cc2)nc(-c2ccc(C(F)(F)F)cc2)c1 (stereo unspecified),> 100 µM
7,CC(C)(C)[Si](OC1CC(n2cnc3c(N)ncnc32)OC1CO)(c1ccccc1)c1ccccc1 (stereo unspecified),47.3 µM
8,NS(=O)(=O)c1ccc(N=Nc2nc3[nH]c(=O)[nH]c(=O)c3[nH]2)cc1,> 100 µM
9,CC1=CC(C)C/C=C/C2C3OC3(C)C(C)C3C(Cc4c[nH]c5ccccc45)NC(=O)C23C(=O)C=CC(=O)C1O (stereo unspecified),3.13 µM
10,O=C(O)c1ccc(Nc2c3ccccc3nc3ccccc23)cc1,> 100 µM
11,Cc1cc(C)n(C(=C(C(Cl)=C(Cl)Cl)[N+](=O)[O-])n2nc(C)cc2C)n1,6.78 µM
12,COc1ccc(C2COc3cc(OC(C)=O)c(OC(C)=O)cc3C2)cc1 (stereo unspecified),23.6 µM
13,CCOc1cc2c(OCc3ccccc3)cc3c4cc(OC)c(OC)cc4c[n+](C)c3c2cc1OC,2.08 µM
14,C/C(=N\NC(=S)N1CCCCC1)c1nc2ncccc2[nH]1,43.1 µM

# System: A549 NSCLC
# Assay: growth of human tumour cells (NCI), 48 h
row,SMILES,TGI
1,c1nc(OCC2CCCCC2)c2[nH]cnc2n1,> 100 µM
2,Oc1cn(-c2ccc(Cl)cc2)nc1-c1nnc(-c2ccccc2)o1,31.5 µM
3,COc1ccc(N2C(=O)/C(=C(\C)c3cc4ccccc4oc3=O)N=C2c2cc([N+](=O)[O-])ccc2Cl)cc1,> 100 µM
4,O=C(O)CC(CC(=O)O)C(=O)O,> 100 µM
5,CC(=O)N(C)c1ccc(Nc2cc(C)[nH]c3ccc4ncnc4c23)cc1,21.7 µM
6,FC(F)(F)c1ccc(N=C/C=C(/Nc2ccc(C(F)(F)F)cc2)c2ccc(Cl)cc2)cc1,35.5 µM
7,CC(C)(C)[Si](OC1CC(n2cnc3c(N)ncnc32)OC1CO)(c1ccccc1)c1ccccc1 (stereo unspecified),30 µM
